Data reported in patent US20090143361A1, “Pyrido[3,2-E]Pyrazines, Process For Preparing The Same, And Their Use As Inhibitors Of Phosphodiesterase 10” (ELBION GMBH, priority 2007, published 2009).
Read-outs that look alike come from different tables or passages of the source.

Tests used:
[1] = molecular target: PDE10 from pig striatum (Sus scrofa, UniProt A0A287B941); assay: Inhibition of PDE10 from pig striatum ([3H]-cAMP SPA); assay type: biochemical
[2] = molecular target: PDE10 from guinea pig striatum (Cavia porcellus, UniProt A0A286XN47); assay: Inhibition of PDE10 from guinea pig striatum ([3H]-cAMP SPA); assay type: biochemical; conditions: Method B
Sequence of PDE10 from guinea pig striatum (A0A286XN47 1-773): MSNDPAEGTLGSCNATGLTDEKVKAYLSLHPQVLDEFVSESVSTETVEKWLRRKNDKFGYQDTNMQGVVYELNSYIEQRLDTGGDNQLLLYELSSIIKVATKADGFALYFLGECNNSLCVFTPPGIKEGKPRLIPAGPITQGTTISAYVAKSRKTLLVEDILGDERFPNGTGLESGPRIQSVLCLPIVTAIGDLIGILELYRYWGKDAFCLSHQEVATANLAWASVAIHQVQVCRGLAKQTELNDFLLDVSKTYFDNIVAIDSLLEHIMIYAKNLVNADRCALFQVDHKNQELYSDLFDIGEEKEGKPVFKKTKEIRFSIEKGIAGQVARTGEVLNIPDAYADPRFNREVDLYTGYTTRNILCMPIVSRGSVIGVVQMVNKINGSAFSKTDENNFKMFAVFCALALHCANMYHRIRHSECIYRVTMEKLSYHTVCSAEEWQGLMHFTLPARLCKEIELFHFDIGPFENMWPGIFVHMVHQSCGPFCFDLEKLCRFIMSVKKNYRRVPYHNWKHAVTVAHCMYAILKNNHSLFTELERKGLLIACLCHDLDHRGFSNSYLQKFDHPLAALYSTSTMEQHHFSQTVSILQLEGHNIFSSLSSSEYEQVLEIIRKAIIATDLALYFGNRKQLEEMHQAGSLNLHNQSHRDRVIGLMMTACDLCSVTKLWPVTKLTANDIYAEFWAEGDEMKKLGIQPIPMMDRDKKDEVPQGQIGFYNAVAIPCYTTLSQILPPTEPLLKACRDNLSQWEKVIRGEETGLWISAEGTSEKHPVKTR
Experimental: (§1) The phosphodiesterase isoenzyme 10 (PDE10) activity was determined in preparations of rat, pig and guinea pig striatum respectively. Striatum from male Wistar rats (180-200 g), male hybrid pigs (150 kg) and male guinea pigs (CRL (HA), 500 g) respectively were collected and frozen at −70° C. At the day of preparation 0.5 g striatum was homogenized in 10 ml 50 mM Tris/Mg-buffer at 4° C. and centrifuged for one hour at 100000 g. The supernatant is called the cytosolic fraction and was removed and stored on ice. The pellet was resuspended in the same buffer, but containing 1% Triton and incubated for 45 min at 4° C. Both fractions were independently applied onto a 5 ml Hi Trap™ QHP column at the Akta-FPLC. After washing the columns the bound PDE protein was eluted with an increasing sodium chloride gradient (0 mM-500 mM sodium chloride) in 50 mM Tris/Mg-buffer at 4° C. for the cytosolic fraction and in the presence of 1% Triton for the membrane fraction. […] The fractions with PDE10-activity were pooled and frozen in aliquots until use at −20° C. PDE10 activity was determined in a one step procedure in microtiterplates. […] Nonspecific activity was tested without the enzyme. […] One hour later the mixture was measured in a liquid scintillation counter for microtiterplates (Microbeta Trilux). […]

[3] = rats; Kostowski et al. 1976; cited from earlier work
[4] = rats; Kostowski et al. 1976; cited from earlier work; remark: listed apart in the source
[5] = rats; Kostowski et al. 1976; cited from earlier work; remark: listed apart in the source
[6] = molecular target: T1, PDE10 from rat striatum (Rattus norvegicus, UniProt Q9QYJ6); assay: Inhibition of PDE10 from rat striatum ([3H]-cAMP SPA); assay type: biochemical; conditions: Method B, read-out: Km-value for the substrate
T1 construct: from tissue; host or cells: rat (Wistar) striatum, FPLC fractions
T1 sequence (Q9QYJ6 1-794): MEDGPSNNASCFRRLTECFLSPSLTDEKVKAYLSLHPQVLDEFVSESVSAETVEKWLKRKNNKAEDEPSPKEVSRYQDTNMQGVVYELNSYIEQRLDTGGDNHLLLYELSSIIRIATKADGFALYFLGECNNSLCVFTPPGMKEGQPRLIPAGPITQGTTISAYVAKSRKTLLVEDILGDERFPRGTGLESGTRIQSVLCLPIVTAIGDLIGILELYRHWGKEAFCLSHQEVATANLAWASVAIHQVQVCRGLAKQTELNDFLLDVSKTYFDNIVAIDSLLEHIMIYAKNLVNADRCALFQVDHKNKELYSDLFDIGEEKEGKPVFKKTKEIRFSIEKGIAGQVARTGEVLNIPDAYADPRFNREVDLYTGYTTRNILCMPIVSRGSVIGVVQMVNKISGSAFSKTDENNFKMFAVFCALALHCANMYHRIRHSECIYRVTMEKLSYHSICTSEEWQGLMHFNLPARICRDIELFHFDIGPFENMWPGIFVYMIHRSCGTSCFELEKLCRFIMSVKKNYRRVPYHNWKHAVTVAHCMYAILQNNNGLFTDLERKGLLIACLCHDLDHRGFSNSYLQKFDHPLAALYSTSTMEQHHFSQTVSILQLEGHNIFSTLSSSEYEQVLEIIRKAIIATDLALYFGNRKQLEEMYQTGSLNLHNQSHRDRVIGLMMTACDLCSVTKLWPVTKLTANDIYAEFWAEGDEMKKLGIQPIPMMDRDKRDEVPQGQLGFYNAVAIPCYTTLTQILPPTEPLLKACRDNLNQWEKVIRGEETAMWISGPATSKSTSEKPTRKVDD
Experimental: as §1

[7] = molecular target: Phosphodiesterase (PDE) 10A (Homo sapiens, UniProt Q9Y233); conditions: Soderling et al. 1999; cited from earlier work
Sequence of Phosphodiesterase (PDE) 10A (Q9Y233 whole entry): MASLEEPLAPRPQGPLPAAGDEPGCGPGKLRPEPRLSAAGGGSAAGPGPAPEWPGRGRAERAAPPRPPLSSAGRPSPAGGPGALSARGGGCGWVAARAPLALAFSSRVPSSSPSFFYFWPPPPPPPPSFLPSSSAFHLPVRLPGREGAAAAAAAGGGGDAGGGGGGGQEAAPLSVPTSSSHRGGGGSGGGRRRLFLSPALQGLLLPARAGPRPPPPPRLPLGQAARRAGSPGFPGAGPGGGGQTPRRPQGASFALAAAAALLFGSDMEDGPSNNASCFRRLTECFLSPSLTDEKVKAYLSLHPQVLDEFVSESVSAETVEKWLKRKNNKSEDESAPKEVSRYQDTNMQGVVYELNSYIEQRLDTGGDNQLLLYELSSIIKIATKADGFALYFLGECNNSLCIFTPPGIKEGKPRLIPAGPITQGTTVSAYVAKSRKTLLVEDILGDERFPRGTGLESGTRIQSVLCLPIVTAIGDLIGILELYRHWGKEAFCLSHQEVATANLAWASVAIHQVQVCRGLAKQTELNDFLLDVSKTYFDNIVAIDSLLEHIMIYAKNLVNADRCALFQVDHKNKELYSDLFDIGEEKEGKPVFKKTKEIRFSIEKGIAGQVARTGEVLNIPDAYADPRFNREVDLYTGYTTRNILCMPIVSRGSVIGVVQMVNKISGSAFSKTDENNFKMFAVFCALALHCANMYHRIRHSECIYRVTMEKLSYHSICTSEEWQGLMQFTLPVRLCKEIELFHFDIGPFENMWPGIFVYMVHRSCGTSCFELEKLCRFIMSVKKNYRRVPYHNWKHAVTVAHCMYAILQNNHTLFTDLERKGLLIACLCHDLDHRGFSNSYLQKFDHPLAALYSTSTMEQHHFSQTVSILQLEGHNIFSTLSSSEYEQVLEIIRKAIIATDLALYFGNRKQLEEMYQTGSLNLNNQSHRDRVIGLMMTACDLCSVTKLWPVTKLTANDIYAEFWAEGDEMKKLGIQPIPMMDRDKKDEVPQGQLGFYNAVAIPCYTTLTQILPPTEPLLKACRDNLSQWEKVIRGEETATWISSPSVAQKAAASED

[8] = molecular target: T2, human recombinant PDE10A (Homo sapiens, UniProt Q9Y233); assay: Inhibition of PDE10, human recombinant PDE10A ([3H]-cAMP SPA); assay type: biochemical
T2 construct: made in house; host or cells: SF21 insect cells (baculovirus)
T2 sequence (Q9Y233 1-779 isoform Q9Y233-1): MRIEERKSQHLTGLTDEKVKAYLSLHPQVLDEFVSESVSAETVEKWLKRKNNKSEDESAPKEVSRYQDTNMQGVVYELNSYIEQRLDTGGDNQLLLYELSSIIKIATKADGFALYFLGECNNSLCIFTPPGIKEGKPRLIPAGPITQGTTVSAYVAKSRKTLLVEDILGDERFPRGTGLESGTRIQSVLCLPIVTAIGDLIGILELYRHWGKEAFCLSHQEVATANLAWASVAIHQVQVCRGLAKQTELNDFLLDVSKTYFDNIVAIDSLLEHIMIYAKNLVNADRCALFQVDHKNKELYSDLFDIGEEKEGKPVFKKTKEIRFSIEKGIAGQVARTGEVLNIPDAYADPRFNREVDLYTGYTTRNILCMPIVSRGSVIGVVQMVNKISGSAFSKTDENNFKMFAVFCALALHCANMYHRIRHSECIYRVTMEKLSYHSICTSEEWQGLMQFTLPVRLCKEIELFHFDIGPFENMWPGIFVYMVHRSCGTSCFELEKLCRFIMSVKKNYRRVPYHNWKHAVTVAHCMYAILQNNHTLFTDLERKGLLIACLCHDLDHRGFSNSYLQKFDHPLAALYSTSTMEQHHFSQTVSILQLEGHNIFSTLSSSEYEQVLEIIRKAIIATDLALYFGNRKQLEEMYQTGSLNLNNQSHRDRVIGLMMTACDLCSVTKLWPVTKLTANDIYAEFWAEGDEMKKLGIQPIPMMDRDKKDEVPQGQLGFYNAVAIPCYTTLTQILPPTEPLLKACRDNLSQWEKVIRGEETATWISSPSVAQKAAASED
Experimental: The gene was than inserted into a baculovirus vector, ligated with the baculovirus DNA. The enzyme-protein was expressed in SF21-cells. The enzyme was isolated from these cells by harvesting the cells by a centrifugation at 200 g to collect the cells. The cells were resuspended in 50 mM Tris-HCl/5 mM MgCl2 buffer (pH=7.4) and lysed by a sonication of the cells. The cytosolic PDE10A was obtained by a centrifugation at 48000 g for 1 h in the supernatant and stored at −70° C. PDE10 activity was determined in a one step procedure in microtiterplates. […] Nonspecific activity was tested without the enzyme. The reaction was initiated by addition of the substrate solution and was carried out at 37° C. for 30 minutes. Enzymatic activity was stopped by addition of 25 μl YSi-SPA-beads (Amersham-Pharmacia). One hour later the mixture was measured in a liquid scintillation counter for microtiterplates (Microbeta Trilux). To pipette the incubation mixture a robot Biomek (Fa. Beckman) is used. […] For determination of IC50 values the Hill-plot, 2-parameter-model, was used.

[9] = Table 7, read-out: Human PDE10 (IC50 nM)
[10] = Table 7, read-out: PDE10 pig IC50

SMILES | IC50 [8, 9] | IC50 [1, 10] | IC50 ([8]; Table 9, read-out: hPDE10 IC50) | also measured
COc1ccc(Cc2nccc3cc(OC)c(OC)cc23)cc1OC [Papaverine, papaverine] |  |  |  | IC50 ([1]; Method A, PDE10 from striatum of pig): 0.103 µM; IC50 ([1]; Method B, PDE10 from striatum of pig, read-out: IC50): 0.11 µM; IC50 [2]: 0.077 µM; apomorphine-induced stereotypes [3]: reduces apomorphine-induced stereotypes in rats; haloperidol-induced catalepsy [4]: increases haloperidol-induced catalepsy in rats; dopamine concentration in rat brain [5]: reducing dopamine concentration in rat brain
Nc1nc2c(ncn2[C@@H]2O[C@@H]3COP(=O)(O)O[C@H]3[C@H]2O)c(=O)[nH]1 [cGMP] |  |  |  | Km ([1]; Method B, pig striatum, read-out: Km-value for the substrate): 2.2 µM; Km [6]: 1.8 µM; Km [7]: 3 µM
COc1ccc2nc(C)c3c(C)nc(-c4cc(OC(F)(F)F)ccc4Cl)n3c2n1 [Example 24, 9-[2-Chloro-5-(trifluoromethoxy)phenyl]-2-methoxy-6,7-dimethylimidazo[1,5-]pyrido[3,2-e]pyrazine] | 10 to 100 nM | 0.01 to 0.1 µM |  | 
COc1ccc(Cl)c(-c2nc(C)c3c(C)nc4ccc(OC)nc4n23)c1 [Example 19, 9-(2-Chloro-5-methoxyphenyl)-2-methoxy-6,7-dimethylimidazo[1,5-a]pyrido[3,2-e]pyrazine] | 10 to 100 nM | < 0.01 µM |  | 
COc1ccc2nc(C)c3c(C)nc(-c4cc(C(F)(F)F)ccc4Cl)n3c2n1 [Example 23, 9-[2-Chloro-5-(trifluoromethyl)phenyl]-2-methoxy-6,7-dimethylimidazo[1,5-a]pyrido[3,2-e]pyrazine] | < 10 nM | < 0.01 µM |  | 
COc1ccc2nc(C)c3c(C)nc(-c4cc[nH]c4)n3c2n1 [Example 181, 2-methoxy-6,7-dimethyl-9-(1H-pyrrol-3-yl)imidazo[1,5-a]pyrido[3,2-e]pyrazine] |  |  | 10 to 100 nM | 
COc1ccc2nc(C)c3c(C)nc(-c4ccncc4OC)n3c2n1 [Example 161, 2-Methoxy-9-(3-methoxypyridin-4-yl)-6,7-dimethylimidazo[1,5-a]pyrido[3,2-e]pyrazine] |  |  | 10 to 100 nM | 
COc1ccc2nc(C)c3c(C)nc(-c4ccc(C(F)(F)F)cc4Cl)n3c2n1 [Example 20, 9-[2-Chloro-4-(trifluoromethyl)phenyl]-2-methoxy-6,7-dimethylimidazo[1,5-a]pyrido[3,2-e]pyrazine] | < 10 nM | < 0.01 µM |  | 
COc1ccc2nc(C)c3c(C)nc(-c4cnn(CC(C)C)c4)n3c2n1 [Example 182, 2-methoxy-6,7-dimethyl-9-[1-(2-methylpropyl)-1H-pyrazol-4-yl]imidazo[1,5-yl}imidazo[1,5-a]pyrido[3,2-e]pyrazine] |  |  | > 100 nM | 

Continued, in another order:

IC50 [8, 9] | IC50 [1, 10] | IC50 ([8]; Table 9, read-out: hPDE10 IC50) | SMILES | also measured
10 to 100 nM | 0.01 to 0.1 µM |  | CCOc1ccc(Cl)c(-c2nc(C)c3c(C)nc4ccc(OC)nc4n23)c1 [Example 26, 9-(2-Chloro-5-ethoxyphenyl)-2-methoxy-6,7-dimethylimidazo[1,5-a]pyrido[3,2-e]pyrazine] | 
10 to 100 nM | < 0.01 µM |  | COc1ccc2nc(C)c3c(C)nc(-c4cc(C)ccc4F)n3c2n1 [Example 21, 9-(2-Fluoro-5-methylphenyl)-2-methoxy-6,7-dimethylimidazo[1,5-a]pyrido[3,2-e]pyrazine] | 
10 to 100 nM | < 0.01 µM |  | COc1ccc2nc(C)c3c(C)nc(-c4cc(C#N)ccc4Cl)n3c2n1 [Example 25, 4-Chloro-3-(2-methoxy-6,7-dimethylimidazo[1,5-a]pyrido[3,2-e]pyrazin-9-yl)benzonitrile] | 
 |  | < 10 nM | COc1ccc2nc(C)c3c(C)nc(-c4ccc(F)c(C(N)=O)c4)n3c2n1 [Example 130, 2-fluoro-5-(2-methoxy-6,7-dimethylimidazo[1,5-a]pyrido[3,2-e]pyrazin-9-yl)benzamide] | 
 |  | > 100 nM | Cc1ccc(C(=O)O)cc1-c1nc(C)c2c(C)nc3ccc(OCC4CC4)nc3n12 [Example 146, 3-[2-(cyclopropylmethoxy)-6,7-dimethylimidazo[1,5-a]pyrido[3,2-e]pyrazin-9-yl]-4-methylbenzoic acid] | 
 |  | < 10 nM | Cc1ccccc1-c1nc(C)c2c(C)nc3ccc(OCC4CC4)nc3n12 [Example 123, 2-(cyclopropylmethoxy)-6,7-dimethyl-9-(2-methylphenyl)imidazo[1,5-a]pyrido[3,2-e]pyrazine] | 
 |  | < 10 nM | COc1ccc2nc(C)c3c(C)nc(-c4ccc(C(N)=O)c(Cl)c4)n3c2n1 [Example 132, 2-chloro-4-(2-methoxy-6,7-dimethylimidazo[1,5-a]pyrido[3,2-e]pyrazin-9-yl)benzamide] | 
 |  | < 10 nM | Cc1ccccc1-c1nc(C)c2c(C)nc3ccc(OCc4ccncc4)nc3n12 [Example 158, 6,7-dimethyl-9-(2-methylphenyl)-2-(pyridin-4-ylmethoxy)imidazo[1,5-a]pyrido[3,2-e]pyrazine] | 
